Source: US5419898A, “Antiallergic composition for ophthalmic or nasal use” (priority 1992, dated 1995)
Where a name gives a salt, the structure may show the parent alone.

Test system: histamine-induced conjunctivitis
Assay: Effect on rat histamine-induced conjunctivitis
Assay type: in vivo, Male Wistar rats
Details: 0.5 w/v % cetirizine hydrochloride; 3 μl per eye 40 and 20 minutes before histamine
Description: Male Wistar rats of about 100 g in weight were injected subconjunctivally each with 50 μl of 0.1 w/v % histamine at the upper eyelid. Each of the following test ophthalmic compositions in solution form was instilled into both eyes of the rats in the corresponding group at a dose of 3 μl for each eye 40 and 20 minutes before the histamine injection. The rats were sacrificed one hour after the histamine injection. The palpebral conjunctival edema weight was measured, and the edema inhibition rate was calculated using the edema weight of the physiological saline group as the maximal response.

O=C(O)COCCN1CCN(C(c2ccccc2)c2ccc(Cl)cc2)CC1 (stereo not shown) [cetirizine hydrochloride]
edema inhibition rate: about 88.8%
